Source: patent US20060005273A1, “Novel maize split-seed explant and methods for in vitro regeneration of maize” (University of Toledo, priority 2004, published 2006)

What was measured:
[1] = tested on: embryogenic callus from maize split-seed explant; experiment: shoot regeneration from embryogenic callus on callus/somatic embryo shoot induction medium; assay type: cell-based; settings: maximum period of two months
Description: Embryogenic calli/somatic embryos are transferred to a “callus/somatic embryo shoot induction medium” (which is an embodiment of the present and is described below) and allowed to develop shoots. The cultures are maintained at 27° C. under 16-hour soft white light. Shoot regeneration frequency is determined by calculating the number of embryogenic calli producing shoots and the number of shoots per callus.
A “callus/somatic embryo shoot induction medium” comprises MS basal salts and B5 vitamins supplemented with a cytokinin, or mixtures of cytokinins. A preferred cytokinin is BAP. The concentration of a cytokinin preferably ranges from 0.1 mg/l to 2.0 mg/l. Preferably the concentration of a cytokinin ranges from […] and most preferably ranges from 0.75 mg/l to 1.0 mg/l. In a preferred embodiment, a cytokinin is BAP is preferably at a concentration of 1.0 mg/l.
White and soft callus formed on the surface of split-seed explants is removed after one week for further growth on “primary calli maintenance medium” (FIG. 3B). Callus initiation from the split-seed is observed in four day old cultures. After one month in culture, highly proliferated calli (FIG. 3C) are transferred to an “embryogenic callus induction medium” containing 2,4-D at 0.1 mg/l and BAP at 0.5 mg/l to maintain embryogenic callus (FIG. 3D). The callus is sub-cultured every two weeks. […]

[2] = tested on: maize split-seed explant; experiment: direct multiple shoot formation on split-seed explant shoot induction medium; assay type: cell-based; settings: BAP alone
Description: Another embodiment of the present invention provides a “split-seed explant shoot induction medium.” When a split-seed explant is exposed to a “split-seed explant shoot induction medium” and incubated under a 16-h soft white light at 27° C., the split-seed explant generates at least one shoot. A “split-seed explant shoot induction medium” comprises MS basal salts and B5 vitamins supplemented with a cytokinin or mixtures of cytokinins. A preferred cytokinin is BAP. The concentration of a cytokinin may range from 1.0 mg/l to 6.0 mg/l. Preferably the concentration of a cytokinin ranges from 1.0 mg/l to 5.0 mg/l and more preferably ranges from 1.5 mg/l to 4.5 mg/l. In a preferred embodiment, a cytokinin is BAP and is at a concentration of 3.0 mg/l to 4.0 mg/l. In a preferred embodiment, BAP is preferably at a concentration of 4.0 mg/l. A “split-seed explant shoot induction medium” further comprises glycine at a preferable concentration of 1.0 mg/l, casein hydrolysate at a preferable concentration of 400 mg/l, and sucrose at a preferable concentration of 30 g/l. A “split-seed explant shoot induction medium” may be solidified with 8.0 g/l agar. The pH of the medium is adjusted to 5.8 prior to adding the agar and the medium is autoclaved at 121° C. for 20 minutes.
In another embodiment, a “split-seed explant shoot induction medium” further comprises 6-furfurylaminopurine (“kinetin”). […]

Question: What does the source list for c1ccc(CNc2ncnc3nc[nH]c23)cc1 [BAP, 6-benzylamino purine]?
Answer: BAP concentration giving the highest number of shoots [1]: 1.0 mg/L; multiple shoot induction [2]: induces multiple shoots
